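Where inhibition never reached the appropriate level, the endpoint shown equals the highest concentration tested. Otherwise, values were interpolated linearly from a five-concentration, 48-hour dose response in 96-well plates. TGI is the concentration that stops growth completely.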
Key:
Assay in all cases: growth of human tumour cells (NCI), 48 h
786-0 renal = test system: 786-0 renal
A498 renal = test system: A498 renal
A549 NSCLC = test system: A549 NSCLC
ACHN renal = test system: ACHN renal
BT-549 breast = test system: BT-549 breast
CAKI-1 renal = test system: CAKI-1 renal
CCRF-CEM leukemia = test system: CCRF-CEM leukemia
COLO 205 colon = test system: COLO 205 colon
DU-145 prostate = test system: DU-145 prostate
EKVX NSCLC = test system: EKVX NSCLC
HCT-116 colon = test system: HCT-116 colon
HCT-15 colon = test system: HCT-15 colon
HOP-62 NSCLC = test system: HOP-62 NSCLC
HOP-92 NSCLC = test system: HOP-92 NSCLC
HS 578T breast = test system: HS 578T breast
HT29 colon = test system: HT29 colon
IGROV1 ovarian = test system: IGROV1 ovarian
K-562 leukemia = test system: K-562 leukemia
KM12 colon = test system: KM12 colon
LOX IMVI melanoma = test system: LOX IMVI melanoma
M14 melanoma = test system: M14 melanoma
MALME-3M melanoma = test system: MALME-3M melanoma
MDA-MB-231 breast = test system: MDA-MB-231 breast
MDA-MB-435 = test system: MDA-MB-435
MDA-N = test system: MDA-N
MOLT-4 leukemia = test system: MOLT-4 leukemia
NCI-H226 lung = test system: NCI-H226 lung
NCI-H23 lung = test system: NCI-H23 lung
NCI-H522 lung = test system: NCI-H522 lung
NCI/ADR-RES ovarian = test system: NCI/ADR-RES ovarian
OVCAR-3 ovarian = test system: OVCAR-3 ovarian
OVCAR-4 ovarian = test system: OVCAR-4 ovarian
OVCAR-5 ovarian = test system: OVCAR-5 ovarian
OVCAR-8 ovarian = test system: OVCAR-8 ovarian
PC-3 prostate = test system: PC-3 prostate
RPMI-8226 leukemia = test system: RPMI-8226 leukemia
RXF 393 renal = test system: RXF 393 renal
SF-268 CNS = test system: SF-268 CNS
SF-295 CNS = test system: SF-295 CNS
SK-MEL-2 melanoma = test system: SK-MEL-2 melanoma
SK-MEL-28 melanoma = test system: SK-MEL-28 melanoma
SK-MEL-5 melanoma = test system: SK-MEL-5 melanoma
SK-OV-3 ovarian = test system: SK-OV-3 ovarian
SN12C renal = test system: SN12C renal
SNB-19 CNS = test system: SNB-19 CNS
SNB-75 CNS = test system: SNB-75 CNS
SR leukemia = test system: SR leukemia
SW-620 colon = test system: SW-620 colon
T-47D breast = test system: T-47D breast
TK-10 renal = test system: TK-10 renal
U251 CNS = test system: U251 CNS
UACC-257 melanoma = test system: UACC-257 melanoma
UACC-62 melanoma = test system: UACC-62 melanoma
UO-31 renal = test system: UO-31 renal
HCC-2998 colon = test system: HCC-2998 colon
HL-60(TB) leukemia = test system: HL-60(TB) leukemia
MCF7 breast = test system: MCF7 breast
NCI-H460 lung = test system: NCI-H460 lung
SF-539 CNS = test system: SF-539 CNS

O=C1c2ccccc2C(=O)c2cc(N=Nc3c(O)ccc4ccccc34)ccc21
TGI (786-0 renal): > 100 µM | TGI (A498 renal): > 100 µM | TGI (A549 NSCLC): > 100 µM | TGI (ACHN renal): > 100 µM | TGI (BT-549 breast): > 100 µM | TGI (CAKI-1 renal): > 100 µM | TGI (CCRF-CEM leukemia): > 100 µM | TGI (COLO 205 colon): > 100 µM | TGI (DU-145 prostate): > 100 µM | TGI (EKVX NSCLC): > 100 µM | TGI (HCT-116 colon): > 100 µM | TGI (HCT-15 colon): > 100 µM | TGI (HOP-62 NSCLC): > 100 µM | TGI (HOP-92 NSCLC): > 100 µM | TGI (HS 578T breast): > 100 µM | TGI (HT29 colon): > 100 µM | TGI (IGROV1 ovarian): > 100 µM | TGI (K-562 leukemia): > 100 µM | TGI (KM12 colon): > 100 µM | TGI (LOX IMVI melanoma): > 100 µM | TGI (M14 melanoma): > 100 µM | TGI (MALME-3M melanoma): > 100 µM | TGI (MDA-MB-231 breast): > 100 µM | TGI (MDA-MB-435): > 100 µM | TGI (MDA-N): > 100 µM | TGI (MOLT-4 leukemia): > 100 µM | TGI (NCI-H226 lung): > 100 µM | TGI (NCI-H23 lung): > 100 µM | TGI (NCI-H522 lung): > 100 µM | TGI (NCI/ADR-RES ovarian): > 100 µM | TGI (OVCAR-3 ovarian): > 100 µM | TGI (OVCAR-4 ovarian): > 100 µM | TGI (OVCAR-5 ovarian): > 100 µM | TGI (OVCAR-8 ovarian): > 100 µM | TGI (PC-3 prostate): > 100 µM | TGI (RPMI-8226 leukemia): > 100 µM | TGI (RXF 393 renal): > 100 µM | TGI (SF-268 CNS): > 100 µM | TGI (SF-295 CNS): > 100 µM | TGI (SK-MEL-2 melanoma): > 100 µM | TGI (SK-MEL-28 melanoma): > 100 µM | TGI (SK-MEL-5 melanoma): > 100 µM | TGI (SK-OV-3 ovarian): > 100 µM | TGI (SN12C renal): > 100 µM | TGI (SNB-19 CNS): > 100 µM | TGI (SNB-75 CNS): > 100 µM | TGI (SR leukemia): > 100 µM | TGI (SW-620 colon): > 100 µM | TGI (T-47D breast): > 100 µM | TGI (TK-10 renal): > 100 µM | TGI (U251 CNS): > 100 µM | TGI (UACC-257 melanoma): > 100 µM | TGI (UACC-62 melanoma): > 100 µM | TGI (UO-31 renal): > 100 µM

COC(=O)c1ccc(/C=C2\Oc3ccccc3C2=O)cc1
TGI (786-0 renal): > 100 µM | TGI (A549 NSCLC): > 100 µM | TGI (ACHN renal): > 100 µM | TGI (BT-549 breast): > 100 µM | TGI (CAKI-1 renal): > 100 µM | TGI (CCRF-CEM leukemia): > 100 µM | TGI (COLO 205 colon): > 100 µM | TGI (DU-145 prostate): > 100 µM | TGI (EKVX NSCLC): > 100 µM | TGI (HCC-2998 colon): > 100 µM | TGI (HCT-116 colon): > 100 µM | TGI (HCT-15 colon): > 100 µM | TGI (HL-60(TB) leukemia): 54.4 µM | TGI (HOP-62 NSCLC): > 100 µM | TGI (HS 578T breast): > 100 µM | TGI (HT29 colon): > 100 µM | TGI (IGROV1 ovarian): > 100 µM | TGI (KM12 colon): > 100 µM | TGI (M14 melanoma): > 100 µM | TGI (MCF7 breast): > 100 µM | TGI (MDA-MB-231 breast): > 100 µM | TGI (MDA-MB-435): > 100 µM | TGI (MDA-N): > 100 µM | TGI (MOLT-4 leukemia): > 100 µM | TGI (NCI-H226 lung): > 100 µM | TGI (NCI-H23 lung): > 100 µM | TGI (NCI-H460 lung): > 100 µM | TGI (NCI-H522 lung): > 100 µM | TGI (NCI/ADR-RES ovarian): > 100 µM | TGI (OVCAR-3 ovarian): > 100 µM | TGI (OVCAR-4 ovarian): > 100 µM | TGI (OVCAR-8 ovarian): > 100 µM | TGI (PC-3 prostate): > 100 µM | TGI (RPMI-8226 leukemia): > 100 µM | TGI (RXF 393 renal): > 100 µM | TGI (SF-268 CNS): > 100 µM | TGI (SF-295 CNS): > 100 µM | TGI (SF-539 CNS): > 100 µM | TGI (SK-MEL-28 melanoma): > 100 µM | TGI (SK-MEL-5 melanoma): > 100 µM | TGI (SK-OV-3 ovarian): > 100 µM | TGI (SN12C renal): > 100 µM | TGI (SNB-19 CNS): > 100 µM | TGI (SNB-75 CNS): > 100 µM | TGI (SR leukemia): > 100 µM | TGI (SW-620 colon): > 100 µM | TGI (T-47D breast): > 100 µM | TGI (TK-10 renal): > 100 µM | TGI (U251 CNS): > 100 µM | TGI (UACC-257 melanoma): > 100 µM | TGI (UACC-62 melanoma): > 100 µM | TGI (UO-31 renal): > 100 µM

O=C1c2cc(Cl)ccc2NC(=NC2CCCC2)C2CSCN12 (stereo unspecified)
TGI (786-0 renal): > 100 µM | TGI (A498 renal): > 100 µM | TGI (A549 NSCLC): > 100 µM | TGI (ACHN renal): > 100 µM | TGI (BT-549 breast): > 100 µM | TGI (CAKI-1 renal): > 100 µM | TGI (CCRF-CEM leukemia): > 100 µM | TGI (COLO 205 colon): > 100 µM | TGI (DU-145 prostate): > 100 µM | TGI (EKVX NSCLC): > 100 µM | TGI (HCC-2998 colon): > 100 µM | TGI (HCT-116 colon): > 100 µM | TGI (HCT-15 colon): > 100 µM | TGI (HOP-62 NSCLC): > 100 µM | TGI (HS 578T breast): > 100 µM | TGI (HT29 colon): > 100 µM | TGI (IGROV1 ovarian): > 100 µM | TGI (K-562 leukemia): > 100 µM | TGI (KM12 colon): > 100 µM | TGI (LOX IMVI melanoma): > 100 µM | TGI (M14 melanoma): > 100 µM | TGI (MALME-3M melanoma): > 100 µM | TGI (MCF7 breast): > 100 µM | TGI (MDA-MB-231 breast): > 100 µM | TGI (MDA-MB-435): > 100 µM | TGI (MDA-N): > 100 µM | TGI (MOLT-4 leukemia): > 100 µM | TGI (NCI-H226 lung): > 100 µM | TGI (NCI-H460 lung): > 100 µM | TGI (NCI-H522 lung): > 100 µM | TGI (NCI/ADR-RES ovarian): > 100 µM | TGI (OVCAR-3 ovarian): > 100 µM | TGI (OVCAR-4 ovarian): > 100 µM | TGI (OVCAR-5 ovarian): > 100 µM | TGI (OVCAR-8 ovarian): > 100 µM | TGI (PC-3 prostate): > 100 µM | TGI (RPMI-8226 leukemia): > 100 µM | TGI (RXF 393 renal): > 100 µM | TGI (SF-268 CNS): > 100 µM | TGI (SF-295 CNS): > 100 µM | TGI (SK-MEL-2 melanoma): > 100 µM | TGI (SK-MEL-28 melanoma): > 100 µM | TGI (SK-MEL-5 melanoma): > 100 µM | TGI (SK-OV-3 ovarian): > 100 µM | TGI (SN12C renal): > 100 µM | TGI (SNB-19 CNS): > 100 µM | TGI (SNB-75 CNS): > 100 µM | TGI (SR leukemia): > 100 µM | TGI (SW-620 colon): > 100 µM | TGI (T-47D breast): > 100 µM | TGI (TK-10 renal): > 100 µM | TGI (U251 CNS): > 100 µM | TGI (UACC-257 melanoma): > 100 µM | TGI (UACC-62 melanoma): > 100 µM | TGI (UO-31 renal): > 100 µM

From PubChem BioAssay (NCI)
